# Where a name gives a salt, the structure may show the parent alone. Read-outs that look alike come from different tables or passages of the source. Marks after values point to notes of the source that are not given here.
# Tests used:
# E. coli ATCC 25922 [1] = assay: MIC (bacteriostatic activity), E. coli; format: cell-based; conditions: Table 5
# Excerpt: (§1) The conditions of the experiment were like those for Zn-64 compound.
# P. aeruginosa ATCC 27853 [2] = assay: MIC (bacteriostatic activity), P. aeruginosa; format: cell-based; conditions: for MIC: Table 5
# Excerpt: as §1
# E. coli ATCC 25922 [3] = assay: Minimum bactericidal concentration (MBC), E. coli; format: cell-based
# Description: (§2) To evaluate the bactericidal action of the antibacterial composition based on light isotope ^64Zne the minimum bactericidal concentration (MBC) was determined by plating out 0.1 ml of the contents of each tube containing the antibacterial composition on Mueller-Hinton medium. The incubation was at 37° C. for 24 h.
# (§3) The MBC of the test samples was determined as the lowest concentration at which there was no growth on Mueller-Hinton agar medium.
# as §1
# P. aeruginosa ATCC 27853 [4] = assay: Minimum bactericidal concentration (MBC), P. aeruginosa; format: cell-based
# Description: as §2, §3, §1
# S. aureus ATCC 25923 [5] = assay: Minimum bactericidal concentration (MBC), S. aureus; format: cell-based
# Description: as §2, §3, §1
# S. aureus ATCC 25923 [6] = assay: MIC (bacteriostatic activity), S. aureus; format: cell-based; conditions: Table 5
# Excerpt: as §1
# herpes virus = format: cell-based; conditions: in vitro
# influenza virus = assay: In vitro reproduction of influenza virus; format: cell-based
# [7] = tested on: BVDV—bovine viral diarrhea virus; format: cell-based; conditions: in vitro
# [8] = tested on: pro-inflammatory (IL-1, IL-6, IL-12, IFN-γ) and anti-inflammatory (IL-4, IL-10, TGF) cytokines; conditions: adipose tissue, M ± m, n = 10
# Description: Given the above, the next phase was to find out whether the administration of Zn-64 stable isotope in aspartate form influences the cytokine profile in obese animals.
# [9] = tested on: MM-4 mouse melanoma cells; assay: In vitro analysis of viability of MM-4 mouse melanoma cells; format: cell-based
# Excerpt: A second study was done on mouse model of lymphocytic leukemia, strain of L1210 leukemia cells, mouse melanoma model (MM-4 cell line derived from mouse melanoma cells of strain B16). Typical results are below.
# [10] = tested on: rats with LPS-induced Parkinson's disease; assay: LPS-induced Parkinson's disease in rats; format: in vivo
# Excerpt: Effects of ^64Zn-KLS-1 on Local and Systemic Immune Reactivity, Behavioural and Motor Functions in Rats with LPS-Induced Experimental Parkinsonism
# type 1 diabetes = assay: Development of type 1 diabetes in vivo
# [11] = Glucose and pancreatic islets in vivo, model not given (section on obesity and type 1 & 2 diabetes)
# MMP-2 = assay: Activities of latent and active forms of metalloproteinase 2 in MM-4 cells
# Epstein-Barr virus [12] = assay: Cytotoxicity and antiviral activity against Epstein-Barr virus
# [13] = tested on: rat models of Aβ1-40-induced AD; assay: Rat model of Alzheimer's disease induced by infusion of Aβ 1-40; format: in vivo, rats
# Excerpt: The Effect of ^64Zn-Asp on Cognitive Symptomatology in Rats with Different Models of Alzheimer's Disease Induced by Infusion of a Mix of Beta-Amyloid Peptides
# MM-4 cells = assay: Immunocytochemistry of Bcl-2, Bax and p53 expression in MM-4 cells; format: cell-based, mouse
# [14] = tested on: animals on a high-fat diet (DIO); assay: Diet induced obesity model (animals on a high-fat diet); format: in vivo, rats
# Excerpt: The preclinical study of the effects of Zn-64 Asp on key pathogenetic links in the development and progression of obesity in diet-induced obesity models provides strong ground for efficient use of Zn-64 Asp as therapeutic agent in the treatment of overweight and obese patients.
# MMP-9 = assay: Activities of latent and active forms of metalloproteinase 9 in MM-4 cells; conditions: 16.69 μg/ml
# [15] = tested on: pro-inflammatory (IL-1, IL-6, IL-12, IFN-γ) and anti-inflammatory (IL-4, IL-10, TGF) cytokines; assay: Cytokine profile in the serum of experimental animals; format: in vivo, rats; conditions: M ± m, n = 10
# Excerpt: As mentioned above, the pathogenesis of obesity is accompanied by a systemic chronic inflammatory process, the intensity of which can be assessed by the serum levels of pro- and anti-inflammatory cytokines.
# RNA and DNA synthesis = assay: Inhibition of RNA and DNA synthesis; format: cell-based
# Epstein-Barr virus [16] = tested on: Epstein-Barr virus
# [17] = LPS-induced Parkinson's disease
# [18] = animals with AD, therapeutic administration
compound,measurement,setting,value
"O=S(=O)([O-])[O-].[Zn+2] [Natural zinc - sulfate, reference compound]",MIC,E. coli ATCC 25922 [1],187.5 zinc mcg/ml
same,MIC,P. aeruginosa ATCC 27853 [2],750 zinc mcg/ml
same,MBC,E. coli ATCC 25922 [3]; Table 6,>750 mcg zinc/ml
same,MBC,P. aeruginosa ATCC 27853 [4]; Table 6,>750 mcg zinc/ml
same,MBC,S. aureus ATCC 25923 [5]; Table 6,>750 mcg zinc/ml
same,MIC,S. aureus ATCC 25923 [6],93.75 zinc mcg/ml
"N[C@@H](CCC(=O)[O-])C(=O)[O-].[Zn+2] [Zinc glutamate, reference compound]",reproduction of herpes virus,herpes virus,effectively inhibited
same,reproduction of influenza virus,influenza virus,effectively inhibited
same,reproduction of surrogate model of HCV (BVDV) virus,[7],effectively inhibited
"NC(CC(=O)[O-])C(=O)[O-].[64Zn+2] (stereo not drawn) [Zn64 Aspartate, ^64Zne aspartate]",IFN-γ level,[8]; control animals (C),5.0 ± 0.8^ RU/mg protein
same,IL-1 level,[8]; control animals (C),4.9 ± 1.7^ RU/mg protein
same,IL-4 level,[8]; control animals (C),5.0 ± 0.4^ RU/mg protein
same,IL-6 level,[8]; control animals (C),5.4 ± 0.3^ RU/mg protein
same,IL-10 level,[8]; control animals (C),4.9 ± 0.2^ RU/mg protein
same,IL-12 level,[8]; control animals (C),1.0 ± 0.03 RU/mg protein
same,TGF level,[8]; control animals (C),5.1 ± 0.6^ RU/mg protein
same,IFN-γ level,[8]; diet induced obesity (DIO),4.9 ± 0.8 RU/mg protein
same,IL-1 level,[8]; diet induced obesity (DIO),5.8 ± 1.8 RU/mg protein
same,IL-4 level,[8]; diet induced obesity (DIO),5.1 ± 1.2 RU/mg protein
same,IL-6 level,[8]; diet induced obesity (DIO),6.1 ± 0.7 RU/mg protein
same,IL-10 level,[8]; diet induced obesity (DIO),5.8 ± 0.8 RU/mg protein
same,IL-12 level,[8]; diet induced obesity (DIO),1.99 ± 0.01 RU/mg protein
same,TGF level,[8]; diet induced obesity (DIO),5.2 ± 0.9 RU/mg protein
same,bacteriostatic activity (in words),P. aeruginosa ATCC 27853 [2],best results
same,suppressed proliferation of MM-4 cells compared with the control,[9]; 16.69 μg/ml,22.2%
same,reduction in the number of live melanoma cells compared with the control,[9]; 25.03 μg/ml,49.2%
same,IC20,[9]; MM-4 cells,16.69 mg/L
same,IC50,[9]; MM-4 cells,25.03 mg/L
same,dopaminergic neuron loss,[10]; [17],Prevention
same,harmful side effects,[10]; [17],absence
same,local and systemic inflammation,[10]; [17],Inhibition
same,metabolic activity of microglia,[10]; [17],increase
same,number of dopaminergic neurons in the substantia nigra,"[10]; LPS-induced Parkinson's disease, rats",virtually full restoration
same,systemic inflammatory responses,"[10]; therapeutic administration, LPS-induced parkinsonism",reduces
same,decrease of glucose concentration,type 1 diabetes,26%
same,decrease of glycosylated hemoglobin,type 1 diabetes,30%
same,increase of serum insulin content,type 1 diabetes,13%
same,glucose concentration compared to the control group,[11],drop
same,increase of insulin producing pancreatic islets area,[11],more than 100%
same,decrease in the activity of active MMP-2 compared with the control,MMP-2; 16.69 μg/ml,66.8%
same,decrease in the activity of latent pro-MMP-2 compared with the control,MMP-2; 16.69 μg/ml,76.5%
same,suppression of the activity of MMP-2 compared with the control,MMP-2; 25.03 μg/ml,76%
same,assessment of cytotoxicity and antiviral activity for anti-EBV infection,Epstein-Barr virus [12],most promising
same,MBC,"E. coli ATCC 25922 [3]; 37° C. 24 h, Table 4",0.73* mcg ^64Zne/ml
same,cognitive function,[13]; AD models,significantly improved
same,"body weight, water and feed intake",[13]; AD rats treated for 10 days,restored
same,neuroinflammation,[13]; Aβ1-40-induced AD,almost complete resolution
same,staining intensity of TH-immuno-positive cells,"[13]; Aβ1-40 AD rats, hippocampal dopaminergic neurons",increased
same,absolute number of circulating leukocytes,[13]; [18],complete normalization
same,neutrophilic lymphocytic coefficient (NLC),[13]; [18],complete normalization
same,MBC,"P. aeruginosa ATCC 27853 [4]; 37° C. 24 h, Table 4",>750 mcg ^64Zne/ml
same,decrease in the expression of Bcl-2 vs. control,MM-4 cells; 16.69 μg/ml,69.5%
same,expression of pro-apoptotic proteins Bax and p53,MM-4 cells; 16.69 μg/ml,did not have any effect
same,expression level of p53 (Y-5 clone),MM-4 cells; 25.03 μg/ml,does not influence
same,increased expression level of Bax compared with the control,MM-4 cells; 25.03 μg/ml,8.9 times
same,increased expression level of p53 (DO-7 clone) compared with the control,MM-4 cells; 25.03 μg/ml,9.5 times
same,expression of anti-apoptotic protein Bcl-2,MM-4 cells; concentration not given,does not have any effect
same,MBC,"S. aureus ATCC 25923 [5]; 37° C. 24 h, Table 4",0.023* mcg ^64Zne/ml
same,fatty degeneration (exocrine part of the pancreas),[14]; DIO group,Disappearance
same,"divalent metal ions (zinc, copper, manganese) in muscles, kidneys and liver",[14]; animal models of obesity,restoration of their normal physiological levels
same,activity of antioxidant enzymes (superoxide dismutase and catalase),[14]; animals on a high fat diet,increased activity
same,levels of lipid peroxidation products and protein oxidative modification,[14]; animals on a high fat diet,decrease
same,central and peripheral serotonin levels compared to untreated animal models of obesity,[14]; animals on a high-fat diet,restoration
same,decrease of the area of hepatocytes compared to the group with obesity,[14]; animals on a high-fat diet,41%
same,increase of the cross-sectional surface area of the islets of Langerhans compared with the obesity group,[14]; animals on a high-fat diet,43%
same,lipid metabolism,[14]; animals on a high-fat diet,Improvement
same,serotonin levels in the brain,[14]; animals on a high-fat diet,An increase
same,weight and the amount of food consumed compared to the untreated animals,[14]; animals on a high-fat diet,Reduction
same,decrease in the activity of active MMP-9 compared with the control,MMP-9,23.8%
same,decrease in the activity of latent pro-MMP-9 compared with the control,MMP-9,61.2%
same,IFN-γ level,[15]; control animals (C),4.6 ± 0.6 RU/mg protein
same,IL-1 level,[15]; control animals (C),3.5 ± 0.7 RU/mg protein
same,IL-4 level,[15]; control animals (C),4.6 ± 0.8 RU/mg protein
same,IL-6 level,[15]; control animals (C),4.3 ± 0.2^ RU/mg protein
same,IL-10 level,[15]; control animals (C),4.1 ± 0.5 RU/mg protein
same,IL-12 level,[15]; control animals (C),0.3 ± 0.04 RU/mg protein
same,TGF level,[15]; control animals (C),4.1 ± 0.4 RU/mg protein
same,IFN-γ level,[15]; diet induced obesity (DIO),4.1 ± 1.2 RU/mg protein
same,IL-1 level,[15]; diet induced obesity (DIO),4.2 ± 0.4 RU/mg protein
same,IL-4 level,[15]; diet induced obesity (DIO),5.6 ± 1.6 RU/mg protein
same,IL-6 level,[15]; diet induced obesity (DIO),5.1 ± 0.4 RU/mg protein
same,IL-10 level,[15]; diet induced obesity (DIO),6.8 ± 1.1 # RU/mg protein
same,IL-12 level,[15]; diet induced obesity (DIO),2.4 ± 0.06 # RU/mg protein
same,TGF level,[15]; diet induced obesity (DIO),5.7 ± 0.3 # RU/mg protein
O=C(O)CC(O)(CC(=O)O)C(=O)O [^64Zne citrate],RNA and DNA synthesis,RNA and DNA synthesis,Inhibition
same,assessment of cytotoxicity and antiviral activity for anti-EBV infection,Epstein-Barr virus [16],most promising
NC(CCC(=O)[O-])C(=O)[O-].[64Zn+2] (stereo not drawn) [^64Zne glutamate],bacteriostatic activity (in words),P. aeruginosa ATCC 27853 [2],best results
same,RNA and DNA synthesis,RNA and DNA synthesis,Inhibition
same,MBC,"E. coli ATCC 25922 [3]; 37° C. 24 h, Table 4",0.37* mcg ^64Zne/ml
same,MBC,"P. aeruginosa ATCC 27853 [4]; 37° C. 24 h, Table 4",>750 mcg ^64Zne/ml
same,MBC,"S. aureus ATCC 25923 [5]; 37° C. 24 h, Table 4",0.046* mcg ^64Zne/ml
O=S(=O)([O-])[O-].[64Zn+2] [^64Zne sulfate],MIC,E. coli ATCC 25922 [1],0.0916 zinc mcg/ml
same,MIC,P. aeruginosa ATCC 27853 [2],46.875 zinc mcg/ml
same,MBC,"E. coli ATCC 25922 [3]; 37° C. 24 h, Table 4",1.46* mcg ^64Zne/ml
same,MBC,E. coli ATCC 25922 [3]; Table 6,1.4648 mcg zinc/ml
same,MBC,"P. aeruginosa ATCC 27853 [4]; 37° C. 24 h, Table 4",375 mcg ^64Zne/ml
same,MBC,P. aeruginosa ATCC 27853 [4]; Table 6,375 mcg zinc/ml
same,MBC,"S. aureus ATCC 25923 [5]; 37° C. 24 h, Table 4",0.37* mcg ^64Zne/ml
same,MBC,S. aureus ATCC 25923 [5]; Table 6,0.3662 mcg zinc/ml
same,MIC,S. aureus ATCC 25923 [6],0.366 zinc mcg/ml
NC(CCC(=O)[O-])C(=O)[O-].[64Zn+2] (stereo not drawn) [zinc-64 light isotope glutamate],reproduction of herpes virus,herpes virus,effectively inhibited
same,reproduction of influenza virus,influenza virus,effectively inhibited
same,reproduction of surrogate model of HCV (BVDV) virus,[7],effectively inhibited
Zn64 EDDA,bacteriostatic activity (in words),P. aeruginosa ATCC 27853 [2],best results
same,assessment of cytotoxicity and antiviral activity for anti-EBV infection,Epstein-Barr virus [16],most promising
^64Zne EDDS,MIC,E. coli ATCC 25922 [1],0.18 zinc mcg/ml
same,MIC,P. aeruginosa ATCC 27853 [2],5.86 zinc mcg/ml
same,MBC,"E. coli ATCC 25922 [3]; 37° C. 24 h, Table 4",2.93* mcg ^64Zne/ml
same,MBC,E. coli ATCC 25922 [3]; Table 6,2.9296 mcg zinc/ml
same,MBC,"P. aeruginosa ATCC 27853 [4]; 37° C. 24 h, Table 4",375 mcg ^64Zne/ml
same,MBC,P. aeruginosa ATCC 27853 [4]; Table 6,375 mcg zinc/ml
same,MBC,"S. aureus ATCC 25923 [5]; 37° C. 24 h, Table 4",0.73* mcg ^64Zne/ml
same,MBC,S. aureus ATCC 25923 [5]; Table 6,0.7324 mcg zinc/ml
same,MIC,S. aureus ATCC 25923 [6],0.73 zinc mcg/ml
